The target in this assay is T1, TRPC3 (Homo sapiens, UniProt Q13507).
T1 sequence (Q13507 1-921): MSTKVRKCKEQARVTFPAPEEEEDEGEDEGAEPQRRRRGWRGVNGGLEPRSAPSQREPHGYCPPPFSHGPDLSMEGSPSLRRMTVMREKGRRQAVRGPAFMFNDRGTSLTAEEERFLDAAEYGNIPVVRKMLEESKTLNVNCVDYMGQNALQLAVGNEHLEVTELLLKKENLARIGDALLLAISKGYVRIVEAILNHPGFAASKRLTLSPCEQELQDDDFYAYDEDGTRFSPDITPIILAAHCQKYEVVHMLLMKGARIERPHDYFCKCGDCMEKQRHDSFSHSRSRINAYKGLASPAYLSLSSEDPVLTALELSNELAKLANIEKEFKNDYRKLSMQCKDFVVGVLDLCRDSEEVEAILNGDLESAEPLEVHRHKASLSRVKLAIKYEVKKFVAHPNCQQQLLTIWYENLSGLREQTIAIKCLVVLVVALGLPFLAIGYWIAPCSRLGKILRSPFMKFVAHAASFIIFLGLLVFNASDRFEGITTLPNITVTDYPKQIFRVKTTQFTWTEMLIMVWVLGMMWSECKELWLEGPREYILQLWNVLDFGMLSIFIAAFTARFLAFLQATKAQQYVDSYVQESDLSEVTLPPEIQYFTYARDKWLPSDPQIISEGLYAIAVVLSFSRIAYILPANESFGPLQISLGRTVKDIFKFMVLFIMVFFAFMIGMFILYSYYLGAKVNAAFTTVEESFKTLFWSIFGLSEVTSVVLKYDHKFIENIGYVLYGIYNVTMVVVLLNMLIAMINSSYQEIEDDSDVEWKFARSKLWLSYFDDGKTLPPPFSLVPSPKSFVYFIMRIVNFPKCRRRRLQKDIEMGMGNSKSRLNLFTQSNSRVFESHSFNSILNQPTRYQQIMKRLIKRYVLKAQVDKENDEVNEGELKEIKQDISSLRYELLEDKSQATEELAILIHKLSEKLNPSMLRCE
Put plainly: whole-cell patch clamp of HEK293 cells transfected with hTRPC3, currents activated by GSK1702934A. It is filed as cell-based. More on the design: expressed in transfected cells; host or cells: HEK293 (CRL-1573), transient transfection, pMO vector. As to conditions: for inhibition at 10 µM: 10 μM compound in presence of agonist GSK1702934A, HEK293 whole-cell peak current, read-out: hTRPC3 % Inhibition at 10 μM (mean ± SEM); for IC50: agonist GSK1702934A, HEK293 whole-cell patch clamp, read-out: hTRPC3 IC50 (μM, mean ± SEM). How it is done: Human embryonic kidney 293 (HEK293; catalog number CRL-1573) cells were cultured in Dulbecco's modified Eagle's medium (Invitrogen) supplemented with 10% fetal bovine serum and 1% penicillin-streptomycin at 37° C. and 5% CO2. Constructs cloned in pMO (a pcDNA3-modified vector) were co-transfected with GFP-pMO, using Lipofectamine 2000 (Invitrogen) according to the manufacturer's instructions. Macroscopic currents in the whole-cell patch clamp configuration were recorded 18-24 h post-transfection. The extracellular solution contained 140 mM NaCl, 6 mM KCl, 2 mM MgCl2, 10 mM HEPES, and 10 mM glucose (pH 7.4). Pipettes were made of borosilicate glass (outer diameter, 1.5 mm; inner diameter, 1.10 mm; Sutter Instruments) and fire-polished with a resistance between 2.8 and 4.0 megaohms when filled with an intracellular solution that contained 140 mM CsCl, 5 mM EGTA, and 10 mM HEPES, pH 7.2. Currents were recorded with a Multiclamp 700B amplifier (Molecular Devices) using a 1-s ramp from −100 to 100 mV. Agonist and antagonists perfused were dissolved in the bath solution prior experiments: TRP channel agonists Allyl isothiocyanate (AITC; TRPA1), capsaicin (TRPV1), and menthol (TRPM8) were obtained from Sigma, GSK1016790A (TRPV4) from Cayman chemicals, and GSK1702934A (TRPC3, TRPC6 and TRPC7) from Tocris Bioscience. Antagonist Pyr3 was obtained from Tocris Bioscience, all other antagonists were synthesized in house. Data were acquired with a sampling rate of 20 kHz, low-pass filtered (10 kHz), and analyzed offline using Clampfit v10.4.2.0 (Molecular Devices).
Electrophysiology results were expressed as means±SD. Data were plotted, and sigmoidal fitting was done using OriginPro (from OriginLab), with the following Boltzmann function:
Using the patch clamp technique in the whole-cell configuration, compounds were screened by challenging hTRPC3 overexpressing HEK293 cells with GSK1702934A to activate TRPC3 and each of the synthesized compounds (10 μM) individually in the presence of the agonist.
To avoid tachyphylaxis and determine the IC50 of compound 22, each point of the dose response curve (FIG. 1B) was done individually on a cell and exchanging coverslips between cells. […] FIGS. 1D-1I show the inhibition of TRPC3-mediated currents by compound 22 and Pyr3 (serving as the reference control). […] Similar results were obtained when OAG was used as the agonist (data not shown).
(In general: In patch-clamp work, channel activity is measured electrically.)

The text below walks through data of patent US20230265068A1, “TRANSIENT RECEPTOR POTENTIAL CANONICAL 3 INHIBITORS AND METHODS OF USE THEREOF” (University of Tennessee Research Foundation, priority 2020, published 2023).

By inhibition is commonly meant how much of the control response was suppressed. Consider `CCNC(=O)c1cnn(-c2ccc(-n3ccc(Cl)c(Cl)c3=O)cc2)c1Cl` [Compound 51, 5-chloro-1-(4-(3,4-dichloro-2-oxopyridin-1(2H)-yl)phenyl)-N-ethyl-1H-pyrazole-4-carboxamide], for which the inhibition at 10 µM worked out at 72.3 ± 2.88%.

The IC50 is the midpoint of a concentration-inhibition curve. Take `CCNC(=O)c1cnn(-c2ccc(-n3ccc(Cl)c(Cl)c3=O)cc2)c1` [Compound 50, 1-(4-(3,4-dichloro-2-oxopyridin-1(2H)-yl)phenyl)-N-ethyl-1H-pyrazole-4-carboxamide]: the inhibition at 10 µM turned out to be 98.08 ± 0.85% and the IC50 was found to be 2.56 ± 0.52 µM.

In the case of `CCNC(=O)c1ncn(-c2ccc(-n3ccc(Cl)c(Cl)c3=O)cc2)c1C(F)(F)F` [Compound 59, 1-(4-(3,4-dichloro-2-oxopyridin-1(2H)-yl)phenyl)-N-ethyl-5-(trifluoromethyl)-1H-imidazole-4-carboxamide], the inhibition at 10 µM worked out at 95.9 ± 3.72% and the IC50 was 0.87 ± 0.17 µM.

In the case of `CCOC(=O)c1cnn(-c2ccc(-n3ccc(Cl)c(Cl)c3=O)cc2)c1C(F)(F)F` [Compound 4, Ethyl 1-(4-(3,4-dichloro-2-oxopyridin-1(2H)-yl)phenyl)-5-(trifluoromethyl)-1H-pyrazole-4-carboxylate], the inhibition at 10 µM amounted to 51.4 ± 4.35%.

Turning to `CC(=O)c1cnn(-c2ccc(-n3ccc(Cl)c(Cl)c3=O)cc2)c1C(F)(F)F` [Compound 67, 1-(4-(4-acetyl-5-(trifluoromethyl)-1H-pyrazol-1-yl)phenyl)-3,4-dichloropyridin-2(1H)-one], the inhibition at 10 µM worked out at 88.7 ± 2.83%.

Turning to `CC(=O)c1cnn(-c2ccc(-n3cc(Cl)c(C)c(Cl)c3=O)cc2)c1C(F)(F)F` [Compound 72, 1-(4-(4-acetyl-5-(trifluoromethyl)-1H-pyrazol-1-yl)phenyl)-3,5-dichloro-4-methylpyridin-2(1H)-one], the inhibition at 10 µM is 52.1 ± 8.41%.

For the molecule `CCOC(=O)c1cnn(-c2ccc(-n3ccccc3=O)cc2)c1C(F)(F)F` [Compound 1, Ethyl 1-(4-(2-oxopyridin-1(2H)-yl)phenyl)-5-(trifluoromethyl)-1H-pyrazole-4-carboxylate], the inhibition at 10 µM was 49.5 ± 3.91%.

For `CCNC(=O)c1cnn(-c2ccc(-n3ccc(Cl)c(Cl)c3=O)cc2)c1C#N` [Compound 52, 5-cyano-1-(4-(3,4-dichloro-2-oxopyridin-1(2H)-yl)phenyl)-N-ethyl-1H-pyrazole-4-carboxamide], the inhibition at 10 µM amounted to 88.8 ± 6.37%.

Turning to `CC(=O)c1cnn(-c2ccc(-n3ccc(C)c(Cl)c3=O)cc2)c1C(F)(F)F` [Compound 71, 1-(4-(4-acetyl-5-(trifluoromethyl)-1H-pyrazol-1-yl)phenyl)-3-chloro-4-methylpyridin-2(1H)-one], the inhibition at 10 µM came out at 57.8 ± 8.74%.

As for `O=C(NC1CC1)c1cnn(-c2ccc(-n3ccc(Cl)c(Cl)c3=O)cc2)c1C(F)(F)F` [Compound 44, N-cyclopropyl-1-(4-(3,4-dichloro-2-oxopyridin-1(2H)-yl)phenyl)-5-(trifluoromethyl)-1H-pyrazole-4-carboxamide], the inhibition at 10 µM worked out at 74.8 ± 5.65%.

With `CCNC(=O)c1cnn(-c2ccc(-n3ccc(C(F)(F)F)c(Cl)c3=O)cc2)c1C(F)(F)F` [Compound 27, 1-(4-(3-chloro-2-oxo-4-(trifluoromethyl)pyridin-1(2H)-yl)phenyl)-N-ethyl-5-(trifluoromethyl)-1H-pyrazole-4-carboxamide], the inhibition at 10 µM was determined as 89.4 ± 6.45%.

Take `CCOCc1cnn(-c2ccc(-n3ccc(Cl)c(Cl)c3=O)cc2)c1C(F)(F)F` [Compound 78, 3,4-dichloro-1-(4-(4-(ethoxymethyl)-5-(trifluoromethyl)-1H-pyrazol-1-yl)phenyl)pyridin-2(1H)-one]: the inhibition at 10 µM was found to be 68.3 ± 2.11%.

For the molecule `CCNC(=O)c1cn(-c2ccc(-n3ccc(Cl)c(Cl)c3=O)cc2)nc1C(F)(F)F` [Compound 49, 1-(4-(3,4-dichloro-2-oxopyridin-1(2H)-yl)phenyl)-N-ethyl-3-(trifluoromethyl)-1H-pyrazole-4-carboxamide], the inhibition at 10 µM was determined as 97.23 ± 0.89% and the IC50 came to 1.1 ± 0.24 µM.

In the case of `CCCC(N)c1cnn(-c2ccc(-n3ccc(Cl)c(Cl)c3=O)cc2)c1C(F)(F)F` (stereo not shown) [Compound 76, 1-(4-(4-(1-aminobutyl)-5-(trifluoromethyl)-1H-pyrazol-1-yl)phenyl)-3,4-dichloropyridin-2(1H)-one], the inhibition at 10 µM was 33 ± 5.58%.

With `CCCNC(=O)c1cnn(-c2ccc(-n3ccc(Cl)c(Cl)c3=O)cc2)c1C(F)(F)F` [Compound 39, 1-(4-(3,4-dichloro-2-oxopyridin-1(2H)-yl)phenyl)-N-propyl-5-(trifluoromethyl)-1H-pyrazole-4-carboxamide], the inhibition at 10 µM came to 71.5 ± 4.51%.

Turning to `CCNC(=O)c1cnn(-c2ccc(NC(=O)C(Cl)=C(Cl)Cl)cc2)c1C(F)(F)F` [Compound 79, N-ethyl-1-(4-(2,3,3-trichloroacrylamido)phenyl)-5-(trifluoromethyl)-1H-pyrazole-4-carboxamide], the inhibition at 10 µM worked out at 23.2 ± 1.23%.

Consider `CCNC(=O)c1cnn(-c2ccc(-n3ccc(Cl)cc3=O)cc2)c1C(F)(F)F` [Compound 21, 1-(4-(4-chloro-2-oxopyridin-1(2H)-yl)phenyl)-N-ethyl-5-(trifluoromethyl)-1H-pyrazole-4-carboxamide], for which the inhibition at 10 µM is 84.52 ± 0.722%.

For `CCNC(=O)c1cnn(-c2ccc(-n3cc(Cl)c(Cl)c(Cl)c3=O)cc2)c1C(F)(F)F` [Compound 33], the inhibition at 10 µM was 45.2 ± 3.59%.

For `CCNS(=O)(=O)c1cnn(-c2ccc(-n3ccc(Cl)c(Cl)c3=O)cc2)c1C(F)(F)F` [Compound 48, 1-(4-(3,4-dichloro-2-oxopyridin-1(2H)-yl)phenyl)-N-ethyl-5-(trifluoromethyl)-1H-pyrazole-4-sulfonamide], the inhibition at 10 µM was 67.8 ± 1.75%.

Turning to `CCNCc1cnn(-c2ccc(-n3ccc(Cl)c(Cl)c3=O)cc2)c1C(F)(F)F` [Compound 74, 3,4-dichloro-1-(4-(4-((ethylamino)methyl)-5-(trifluoromethyl)-1H-pyrazol-1-yl)phenyl)pyridin-2(1H)-one], the inhibition at 10 µM worked out at 97.96 ± 0.83% and the IC50 came to 0.09 ± 0.02 µM.

Consider `O=C(c1cnn(-c2ccc(-n3ccc(Cl)c(Cl)c3=O)cc2)c1C(F)(F)F)N1CCCC1` [Compound 45, 3,4-dichloro-1-(4-(4-(pyrrolidine-1-carbonyl)-5-(trifluoromethyl)-1H-pyrazol-1-yl)phenyl)pyridin-2(1H)-one], for which the inhibition at 10 µM came to 86.7 ± 3.82%.

Turning to `CCNC(=O)c1cnn(-c2ccc(-n3ccc(Cl)c(F)c3=O)cc2)c1C(F)(F)F` [Compound 24], the inhibition at 10 µM was 55.5 ± 7.07%.

On to `CCNC(=O)c1cnn(-c2ccc(-n3cc(Br)c(Cl)c(Br)c3=O)cc2)c1C(F)(F)F` [Compound 34], for which the inhibition at 10 µM stood at 34 ± 6.52%.

As for `CCOC(=O)c1cnn(-c2ccc(-n3cc(Cl)c(Cl)cc3=O)cc2)c1C(F)(F)F` [Compound 5, Ethyl 1-(4-(4,5-dichloro-2-oxopyridin-1(2H)-yl)phenyl)-5-(trifluoromethyl)-1H-pyrazole-4-carboxylate], the inhibition at 10 µM amounted to 39.1 ± 2.31%.
